ChEMBL document CHEMBL4406909, “Synthesis and evaluation of 1,3,5-triazine derivatives as sunscreens useful to prevent skin cancer” (Bioorg Med Chem Lett, 2019)

Assays:
[1] = Photoprotection activity against UV radiation assessed as ratio of UVA to UVB
[2] = Antioxidant activity assessed as DPPH free radical scavenging activity at 400 uM incubated for 60 mins by spectrophotometric method relative to control; type: functional
[3] = Antioxidant activity assessed as DPPH free radical scavenging activity at 300 uM incubated for 60 mins by spectrophotometric method relative to control; type: functional
[4] = Antioxidant activity assessed as DPPH free radical scavenging activity at 200 uM incubated for 60 mins by spectrophotometric method relative to control; type: functional
[5] = Antioxidant activity assessed as DPPH free radical scavenging activity at 100 uM incubated for 60 mins by spectrophotometric method relative to control; type: functional
[6] = Thermal stability of compound in DMSO/methanol assessed as onset temperature by UV spectroscopic method; type: physicochemical
[7] = Thermal stability of compound in DMSO/methanol assessed as decomposition temperature by UV spectroscopic method; type: physicochemical
[8] = Thermal stability of compound in DMSO/methanol assessed as mass loss by UV spectroscopic method; type: physicochemical; conditions: read-out: Drug degradation
[9] = Photoprotection activity against UV radiation

Structure (SMILES) | Ratio [1] | Activity [2] [%] | Activity [3] [%] | Activity [4] [%] | Activity [5] [%] | T [6] [°C] | T [7] [°C] | degraded [8] [%] | SPF [9] | UVAPF [9]
CC(C)(C)c1ccc(C(=O)N/N=C/c2ccc(Oc3nc(Oc4ccc(/C=N/NC(=O)c5ccc(C(C)(C)C)cc5)cc4)nc(Oc4ccc(/C=N/NC(=O)c5ccc(C(C)(C)C)cc5)cc4)n3)cc2)cc1 | 0.5 | 5.9 | 4.8 | 4.3 | 4 | 324.37 | 326.22 | 41.2 | 14 | 7
O=C(N/N=C/c1ccc(Oc2nc(Oc3ccc(/C=N/NC(=O)c4ccncc4)cc3)nc(Oc3ccc(/C=N/NC(=O)c4ccncc4)cc3)n2)cc1)c1ccncc1 | 0.4 | 6.1 | 2.4 | 0.5 | 0 | 235.6 | 236.25 | 36.8 | 5 | 3
CCCCC(CC)COC(=O)c1ccc(Nc2nc(Nc3ccc(C(=O)OCC(CC)CCCC)cc3)nc(Nc3ccc(C(=O)OCC(CC)CCCC)cc3)n2)cc1 (stereo not given) | 0.8 | 3.5 | 2.6 | 1.6 | 0 | 119.99 | 232.29 | 68.7 | 3 | 3
O=C(N/N=C/c1ccc(Oc2nc(Oc3ccc(/C=N/NC(=O)c4ccc([N+](=O)[O-])cc4)cc3)nc(Oc3ccc(/C=N/NC(=O)c4ccc([N+](=O)[O-])cc4)cc3)n2)cc1)c1ccc([N+](=O)[O-])cc1 | 0.8 | 3.5 | 2.7 | 2.2 | 0.5 | 291.8 | 304.87 | 37.3 | 4 | 3
Oc1ccc(/C=C/c2cc(O)cc(O)c2)cc1 [RESVERATROL] | 0.7 | 62.2 | 56.2 | 55.9 | 46.8 | 263.46 | 266.95 | 32.9 | 2 | 2
O=C(N/N=C/c1ccc(Oc2nc(Oc3ccc(/C=N/NC(=O)c4ccc(O)cc4O)cc3)nc(Oc3ccc(/C=N/NC(=O)c4ccc(O)cc4O)cc3)n2)cc1)c1ccc(O)cc1O | 0.5 | 75.6 | 75.1 | 74.2 | 55.3 | 218.88 | 309.94 | 39.8 | 3 | 2
O=C(N/N=C/c1ccc(Oc2nc(Oc3ccc(/C=N/NC(=O)c4ccccc4)cc3)nc(Oc3ccc(/C=N/NC(=O)c4ccccc4)cc3)n2)cc1)c1ccccc1 | 0.6 | 2.4 | 2 | 1.3 | 0.9 | 275.89 | 294.21 | 36.7 | 9 | 5
O=C(N/N=C/c1ccc(Oc2nc(Oc3ccc(/C=N/NC(=O)c4ccccc4O)cc3)nc(Oc3ccc(/C=N/NC(=O)c4ccccc4O)cc3)n2)cc1)c1ccccc1O | 0.7 | 0.8 | 0.3 | 0 | 0 | 264.89 | 269.71 | 19.6 | 17 | 13
O=C(N/N=C/c1ccc(Oc2nc(Oc3ccc(/C=N/NC(=O)c4ccc(O)cc4)cc3)nc(Oc3ccc(/C=N/NC(=O)c4ccc(O)cc4)cc3)n2)cc1)c1ccc(O)cc1 | 0.5 | 8.2 | 6.7 | 5.6 | 4.4 | 267.35 | 272.15 | 11.6 | 7 | 4
O=C(N/N=C/c1ccc(Oc2nc(Oc3ccc(/C=N/NC(=O)c4cccc(O)c4)cc3)nc(Oc3ccc(/C=N/NC(=O)c4cccc(O)c4)cc3)n2)cc1)c1cccc(O)c1 | 0.4 | 6.3 | 5.8 | 4.4 | 4.2 | 248.22 | 297.87 | 18.7 | 4 | 2
